Literature values as cited in patent US20030153801A1, “Compositions of cyclooxygenase-2 selective inhibitors and radiation for inhibition or prevention of cardiovascular disease” (Pharmacia Corporation, priority 2001, published 2003).

Tests used:
[1] = test system: coronary intimal proliferation; details: oral administration; swine model of restenosis
[2] = test system: vascular smooth muscle cells; details: in vitro
[3] = single dose pretreatment, intravenous, before coronary stenting
[4] = test system: restenosis; details: orally administered; stent implanted pig arteries

In the case of `CN(C)CCCO[C@@H]1[C@H]2OC(C)(C)O[C@H]2O[C@@H]1[C@H](O)CO.Cl` [aniprilose hydrochloride], the coronary intimal proliferation [1] is given as “did not prevent”.

In the case of `COc1cc(/C=C/C(=O)CC(=O)/C=C/c2ccc(O)c(OC)c2)ccc1O` [curcumin], the “proliferation of vascular smooth muscle cells” value [2] is listed as “reduced”.

For `C[C@H]1C[C@@H]2[C@H]([C@@H](O)C[C@@]3(C)[C@H]2CC[C@]3(O)C(=O)CO)[C@@]2(C)C=CC(=O)C=C12` [methylpridnisolone], the “change in minimal lumen diameter at 6 months” value [3] is listed as “no effect”.

For `COc1ccc(C=CC(=O)Nc2ccccc2C(=O)O)cc1OC` [tranilast, N-(3,4-dimethoxycinnamoyl) anthranilic acid], the rate of restenosis [4] is given as “lower”.
